The test system of test [1] is rat hemorrhagic shock model. The experiment in a line: hemorrhagic shock rat model. Format: in vivo. The settings on record: 3 mg/kg intraperitoneal. The method, then:
Fig. 3 The effect of CH004 on the activity of endogenous hCBS in cells. a CH004 dose-dependently elevates the levels of Hcys in HepG2 and HEK293T cells. HepG2 cells or HEK293T cells were incubated with indicated CH004 or DMSO (control) for 12 h. The amount of total Hcys in cells was measured by ELISA using Axis® Homocysteine EIA kit (IBL, AX51301) (“Materials and Methods” section). […] HepG2 cells were treated with indicated DMSO, CH004 or HA for 8 h before the staining with AzMC probe. The amount of the H2S (blue) was quantified and is shown in (c). Bars, 50 μm. Control (CTR), DMSO group (100%). A representative fluorescence image from three independent experiments is shown. […] The total Hcys of the blood samples collected from the anesthetized rats at the 75 min time point (Materials and Methods) were quantified by ELISA (see above). […]
Figure S10. […] The hemorrhagic shock model was constructed by blood withdrawing (BW) from the carotid artery of anesthetized male Sprague-Dawley rats (280-320 g), and the mean arterial blood pressure (MAP) was monitored by an MP30B-CE pressure transducer (BIOPAC, Santa Barbara, CA, USA). […] Then, 15 min later, CH004 (3 mg/kg), PAG (50 mg/kg) or vehicle (2% DMSO in saline) was intraperitoneally administered to the rats, and the MAP was monitored continuously for another 45 min. MAP was continually recorded during the experiments. […]

The next test relates to HepG2 cells. In words: intracellular total glutathione (Cayman kit). Format: cell-based, human. The settings on record: 24 h. The method, then:
Then, the cells from two wells were collected by cell scraper and washed once with PBS. The intracellular total glutathione (GSH) was measured with a commercial glutathione assay kit under the standard protocol (Cayman Chemical, Ann Arbor, USA). […] Supernatant was then collected after centrifugation at 12,000 × g for 15 min at 4 °C before the deproteination by adding an equal volume of 2.5 M metaphosphoric (MPA, Sigma). After the incubation for 5 min, the mixture was centrifuged at 3000 × g for 5 min. The supernatant was collected and added appropriate amount of 4 M triethanolamine (Sigma, 50 μl per 1 ml of the supernatant). The deproteinated and neutralized supernatant was used for the determination of the amount of total GSH by incubating with the assay reagents (from the kit) in a 96-well plate. After an incubation of 25 min, the absorbance at 405 nm was recorded and converted into the amount of GSH with a standard curve.

The next test has as its system Huh7 cells. In words: cell viability (CellTiter 96 Aqueous One). The format is cell-based. The method, then:
(§1) To measure cell viability and cytotoxicity, HepG2, HEK293T, Huh-7, H22, Panc-28, HCT116 and MDA-MB-231 cells were seeded at a density of ~ 2 × 10^4 cells per well in 96-well plates (Coring, NY, USA) for one day, followed by incubation with DMSO or various concentrations of tested compound for indicated times. Then, the cells were collected to measure the cell viability using the CellTiter 96® Aqueous One Solution Cell Proliferation Assay (Promega, G3581) according to the standard protocols.
(§2) Figure S11. The effects of CH004 on cell viability in various types of cancer cell lines. (A) Dose-dependent curves of CH004 on cell viability of HepG2 cells (▲), HEK293T cells (○). Percentages of cell viability of CH004 obtained in Figure 4a were fitted to the non-linear equation using GraphPad Prism 5 to get the IC50 values of CH004 in respective cell lines. Means ± SDs (n=3). […] (B) MDA-MB-231 (breast cancer cell cline), HCT116 (colon cancer), Panc-28 cells (pancreas cancer), Huh7 cells (hepatocellular carcinoma) and H22 (mouse liver cancer) were incubated with DMSO (control) or indicated concentrations of CH004 for 24 h in a 96-well plate before assessing cell viability using the CellTiter96® Aqueous One Solution Cell Proliferation Assay (Promega). The data are shown as percentages of control (DMSO, 100%). Means ± SDs (n=3). (C) The dose-dependent curve of CH004 on cell viability. Percentages of cell viability obtained in B were fitted to the non-linear equation using GraphPad Prism 5 to get the IC50 values of CH004 in respective cell lines. […] The experiments were independently repeated twice in triplicates and a representative experiment is shown.

Another test deals with HCT116 cells. The experiment in a line: cell viability (CellTiter 96 Aqueous One). Format: cell-based. The method, then:
as §1, §2

The subject of the next test is MDA-MB-231 cells. The experiment in a line: cell viability (CellTiter 96 Aqueous One). The settings on record: Homo sapiens, MDA-MB-231, 24 h. The format is cell-based. As for the experimental part:
as §1, §2

The next test concerns Panc-28 cells. The experiment in a line: cell viability (CellTiter 96 Aqueous One). Format: cell-based. To be noted: 24 h. The method, then:
as §1, §2

The structures appear in SMILES notation.

With `Cn1nc(Cc2ccccc2)nc2c(=O)n(C)c(=O)nc1-2` [CH004, 3-benzyl-1,6-dimethylpyrimido[5,4-e][1,2,4]triazine-5,7(1H,6H)-dione], the “increase of the level of Hcys in blood” value in test [1] (75 min time point) is ~ 2 fold. The “effect on mean arterial pressure (MAP)” value in test [1] (indicator for in vivo CSE inhibition) is recorded as “does not affect”. The “intracellular pool of glutathione (GSH)” value with HepG2 cells is listed as “dose-dependently deplete”. The IC50 (as a rule, the midpoint of a concentration-inhibition curve) was around 12 µM with Huh7 cells (24 h); 12.4 ± 1.6 µM in the test on Huh7 cells (Homo sapiens, Huh-7, 24 h); 4 µM with HCT116 cells (24 h); 4.1 ± 1.2 µM with HCT116 cells (Homo sapiens, HCT-116, 24 h); 25.8 ± 3.2 µM with MDA-MB-231 cells; 7.2 ± 0.5 µM in the test on Panc-28 cells.

The values are drawn from publication PMC6158189, “A pharmacological probe identifies cystathionine β-synthase as a new negative regulator for ferroptosis” (Cell Death & Disease, 2018).
